Results reported in patent US5716958A, “Amino acid derivative having anti-CCK activity” (Tobishi Pharmaceutical Co., Ltd., priority 1994, dated 1998).
Like-named read-outs stand apart in the source and are kept apart here.

Key:
[1] = target: T1, CCK-B (Rattus norvegicus, UniProt P30553); experiment: Central receptor (CCK-B) binding experiment, [^3 H]-CCK-8 binding inhibition; details: rat cerebrum homogenate, 0.2 nM [^3 H]-CCK-8, 60 minutes at 25° C
T1 construct: CCK-B receptors originating in the cell membrane of rat brain cells; from tissue; host or cells: rat cerebrum membranes (male rats, Japan Laboratory Animals)
T1 sequence (P30553 1-452): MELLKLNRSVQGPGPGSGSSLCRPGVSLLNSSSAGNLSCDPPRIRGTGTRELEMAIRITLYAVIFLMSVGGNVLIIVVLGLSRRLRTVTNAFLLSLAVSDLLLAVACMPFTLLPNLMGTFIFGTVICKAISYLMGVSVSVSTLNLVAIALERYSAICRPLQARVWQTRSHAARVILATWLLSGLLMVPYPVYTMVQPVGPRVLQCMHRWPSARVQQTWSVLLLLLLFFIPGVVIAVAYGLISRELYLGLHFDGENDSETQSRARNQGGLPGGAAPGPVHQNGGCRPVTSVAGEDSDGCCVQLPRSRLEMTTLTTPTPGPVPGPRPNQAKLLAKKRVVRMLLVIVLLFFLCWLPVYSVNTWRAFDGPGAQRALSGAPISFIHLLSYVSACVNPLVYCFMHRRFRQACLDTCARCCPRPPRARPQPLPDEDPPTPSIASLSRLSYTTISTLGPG
Protocol: (§1) Peripheral Receptor (CCK-A) and Central Receptor (CCK-B) Binding Experiment
(§2) The pancreas and cerebrum of male rats (Japan Laboratory Animals), which were sacrificed by decapitation and having body weights of 250-300 g, were extracted and immersed in cold Hepes buffer. After suspending these tissues using a Potter homogenizer, the suspension was centrifuged for 10 minutes at 48,000×g. The resulting residue was again suspended by addition of cold Hepes buffer and centrifuged for 10 minutes at 48,000×g. The resulting residue was transferred to cold incubation buffer.
(§3) A 1 ml aliquot of the homogenate was incubated for 60 minutes at 25° C. in the presence of 0.2 nM [^3 H]-CCK-8 and the test compound, in the presence of vehicle only (for measurement of 100% binding), or in the presence of 1 μM cold CCK-8 (for measurement of non-specific binding). Next, the reaction solution was promptly suction filtered using a Whatman glass GF/B filter immersed in Hepes buffer followed by washing the filter with cold Hepes buffer. Next, the glass filter was placed in Aquasol-2 followed by assay of radioactivity with a liquid scintillation counter.
(§4) The compound numbers shown in Table 3 indicate the target compounds according to the number of the embodiment.

[2] = target: T2, CCK-A (Rattus norvegicus, UniProt P30551); experiment: Peripheral receptor (CCK-A) binding experiment, [^3 H]-CCK-8 binding inhibition; details: for CCK-B/CCK-A: ratio of IC50 values CCK-B/CCK-A (selectivity for CCK-A), 60 min
T2 construct: CCK-A receptors prepared from the cell membranes of rat pancreas; from tissue; host or cells: rat pancreas membranes (male rats, Japan Laboratory Animals)
T2 sequence (P30551 1-444): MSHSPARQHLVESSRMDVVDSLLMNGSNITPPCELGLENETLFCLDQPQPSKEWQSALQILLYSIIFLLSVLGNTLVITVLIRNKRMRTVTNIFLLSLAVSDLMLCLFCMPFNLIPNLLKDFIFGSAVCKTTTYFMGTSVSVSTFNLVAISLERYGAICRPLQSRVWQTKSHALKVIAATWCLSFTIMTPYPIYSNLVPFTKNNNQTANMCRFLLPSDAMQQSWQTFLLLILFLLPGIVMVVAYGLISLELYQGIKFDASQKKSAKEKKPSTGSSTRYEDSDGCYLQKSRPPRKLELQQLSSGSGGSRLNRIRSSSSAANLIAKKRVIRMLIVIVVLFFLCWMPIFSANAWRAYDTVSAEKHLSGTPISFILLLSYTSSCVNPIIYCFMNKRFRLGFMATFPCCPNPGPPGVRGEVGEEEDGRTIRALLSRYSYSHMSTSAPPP
Protocol: as §1, §2, §3, §4

[3] = test system: extracted guinea pig ileum; experiment: Anti-CCK action in extracted guinea pig ileum (inhibition of CCK-8-induced contraction, Magnus tube); set-up: species or system guinea pig (Hartley strain, male); details: Cavia porcellus
Protocol: Anti-cholecystokinin (CCK) Action in Extracted Guinea Pig Ileum After sacrificing a male guinea pig (Hartley strain) by striking and exsanguination, a piece of extracted ileum was suspended from a Magnus tube, while applying tension of 0.5 g, containing 30 ml of Tyrode's solution (NaCl 136.9 mM, KCl 2.68 mM, CaCl2 1.8 mM, MgCl2 1.05 mM, NaH2 PO4 0.42 mM, NaHCO3 11.9 mM and glucose 5.55 mM) and ventilated with mixed O2 gas containing 5% CO2 at 37° C. Changes in contraction were recorded on smoked paper for isotonicity via a bevel. The piece of ileum was allowed to stand undisturbed for 30 minutes and then contracted by addition 1×10^-8 M CCK-8. After washing, this was repeated several times. After the contraction by CCK-8 had stabilized, the test compound was added. Contraction resulting from addition of 1×10^-8 M CCK was then measured 5 minutes later. The contraction caused by CCK-8 and the contraction caused by CCK-8 in the presence of the test compound at varying concentrations were compared, and the resulting IC50 values (concentration of test substance at which contraction caused by CCK-8 is inhibited by 50%) are shown in Table 2. The compound numbers shown in Table 2 indicate the target compounds according to the numbers of the embodiments.

[4] = rat pancreas cell membranes, read-out: activity in binding experiment on CCK-A receptors prepared from the cell membranes of rat pancreas
[5] = rat pancreas homogenate, 0.2 nM [^3 H]-CCK-8, 60 minutes at 25° C, read-out: CCK-A IC50
[6] = contraction by 1×10^-8 M CCK-8, test compound added 5 minutes before, extracted ileum, 37° C, read-out: Active IC50

IC50 [1] [nM]	IC50 [2, 4] [nM]	IC50 [2, 5] [nM]	CCK-B/CCK-A [2]	SMILES	IC50 [3, 6] [nM]	IC50 ([3]; extracted guinea pig ileum, read-out: IC50 with respect to the extracted guinea pig ileum (in vitro)) [nM]
42000	5	5	8400	O=C(N[C@@H](CSc1ncccc1C(=O)O)C(=O)N1CCN(C(c2ccccc2)c2ccccc2)CC1)c1cc2cc(O)ccc2[nH]1 [Compound 12-2, (R)-1-[3-(3-carboxypyridin-2-yl)thio-2-(5-hydroxyindol-2-yl)carbonylamino]propionyl-4-diphenylmethylpiperazine]	27	–
14000	5.1	5.1	2745	O=C(N[C@@H](CSc1ncccc1C(=O)O)C(=O)N1CCN(C(c2ccccc2)c2ccccc2)CC1)c1cc2ccccc2[nH]1 [Compound 1-6, (R)-1-[3-(3-carboxypyridin-2-yl)thio-2-(indol-2-yl)carbonylamino]propionyl-4-diphenylmethylpiperazine]	13	–
100000	–	170	588	CCCCC(CCCC)N1CCN(C(=O)[C@H](CSc2ncccc2C(=O)O)NC(=O)c2cc3ccccc3[nH]2)CC1 [Compound 14-5, (R)-1-[3-(3-carboxypyridin-2-yl)thio-2-(indol-2-yl)carbonylamino]propionyl-4-(1-butylpentyl)piperazine]	260	–
18000	–	43	419	COc1ccc2[nH]c(C(=O)N[C@@H](CSc3ncccc3C(=O)O)C(=O)N3CCN(C(c4ccccc4)c4ccccc4)CC3)cc2c1 [Compound 6-2, (R)-1-[3-(3-carboxypyridin-2-yl)thio-2-(5-methoxyindol-2-yl)carbonylamino]propionyl-4-diphenylmethylpiperazine]	52	–
69000	–	37	1865	O=C(N[C@@H](CCn1nncc1C(=O)O)C(=O)N1CCN(C(c2ccccc2)c2ccccc2)CC1)c1cc2ccccc2[nH]1 [Compound 24-3, (S)-1-[4-(5-carboxy-1,2,3-triazol-1-yl)-2-(indol-2-yl)carbonylamino]butyryl-4-diphenylmethylpiperazine]	120	–
10000	–	16	625	O=C(N[C@@H](CCc1ocnc1C(=O)O)C(=O)N1CCN(C(c2ccccc2)c2ccccc2)CC1)c1cc2ccccc2[nH]1 [Compound 26-5, (S)-1-[4-(4-carboxyoxazol-5-yl)-2-(indol-2-yl)carbonylamino]butyryl-4-diphenylmethylpiperazine]	17	–
56000	–	20	2800	O=C(N[C@@H](CSc1ncccc1P(=O)(O)O)C(=O)N1CCN(C(c2ccccc2)c2ccccc2)CC1)c1cc2ccccc2[nH]1 [Compound 22-4, (R)-4-diphenylmethyl-1-[3-(3-phosphonopyridin-2-yl)thio-2-(indol-2-yl)carbonylamino]propionylpiperazine]	36	–
13000	–	560	23	O=C(N[C@@H](CSc1nccnc1C(=O)O)C(=O)N1CCN(C(c2ccccc2)c2ccccc2)CC1)c1cc2ccccc2[nH]1 [Compound 17-3, (R)-1-[3-(3-carboxypyrazin-2-yl)thio-2-(indol-2-yl)carbonylamino)propionyl-4-diphenylmethylpiperazine]	7.2	7.2

SMILES	IC50 [1] [nM]	IC50 [2, 4] [nM]	IC50 [2, 5] [nM]	CCK-B/CCK-A [2]	IC50 [3, 6] [nM]	IC50 ([3]; extracted guinea pig ileum, read-out: IC50 with respect to the extracted guinea pig ileum (in vitro)) [nM]
CCCCCN(CCCOC)C(=O)C(CCC(=O)O)NC(=O)c1ccc(Cl)c(Cl)c1 (stereo not drawn) [CR1505, Loxiglumide, reference compound]	24000	–	1500	16	3300	–
